Test results published in patent publication US8034574B2, “Screening method for prokinetic agent” (Astellas Pharma Inc., priority 2006, dated 2011).
Entries after “also recorded” stand apart in the source; their conditions may differ. Counter-ions that a name gives are not always drawn.

Assays:
[1] = test system: CHO-K1 cells not expressing the polypeptide shown by SEQ ID NO:2; assay: Intracellular calcium by FLIPR in negative control CHO-K1 cells; type: cell-based; details: CHO-K1 cells not expressing TRPA1
RIN14B cells [2] = assay: Serotonin secretion from RIN14B cells (immunoassay); type: cell-based, rat; details: for serotonin secretion from RIN14B cells: 20 minutes culture
Experimental: After RIN14B cells in culture in a Petri dish were detached using a PBS containing 1 mM EDTA, they were sown to a 96-well plate and cultured for 2 days. The medium used was RPMI1640 (Invitrogen Japan K.K.) supplemented with 10% fetal bovine serum (ICN), 100 U/ml penicillin, and 100 μg/ml streptomycin. After the cells were once washed with Hanks' Balanced Salt Solutions (HBSS, Invitrogen) supplemented with 0.1% BSA and 10 μM fluoxetine (TOCRIS), each TRPA1 activator, previously diluted/prepared with the above-described HBSS, was added, and the RIN14B cells were cultured at 37° C. in the presence of 5% CO2 for 20 minutes. After the cultivation, the cell supernatant was recovered, and stored under freezing. The serotonin content in the supernatant was measured using a commercially available serotonin immunoassay kit (Beckman).

RIN14B cells [3] = assay: Channel activity in RIN14B cells using calcium-sensitive fluorescent reagent (FLIPR); type: cell-based, rat; details: for elevation of fluorescence intensity (calcium inflow) in RIN14B cells: Fluo3-AM
Experimental: RIN14B cells (5×10^4 cells), wherein the expression of TRPA1 was confirmed in Example 10, were incubated in the presence of a calcium-sensitive fluorescent reagent (Fluo3-AM; DOJINDO) at 37° C. for 1 hour to thereby incorporate the calcium-sensitive fluorescent reagent in the cells, after which the cells were washed with physiological saline to remove the calcium-sensitive fluorescent reagent that had not been incorporated in the cells. To the cells obtained, physiological saline supplemented with allyl isothiocyanate, cinnamic aldehyde, or acrolein was added; the fluorescence emitted by the cells was measured over time. The above-described measurements were performed using an automated fluorescence detection apparatus (FLIPR; Molecular Device). […] Ruthenium Red was added concurrently and a measurement was performed to determine whether or not calcium inflow in the cells was be inhibited.

guinea pig ileum [4] = assay: Isolated guinea pig gut constriction (Magnus, ileum); details: for EC50: Cavia porcellus, read-out: EC50(μM) †; for Action: Magnus (guinea pig ileum); for suppression of contraction upon stimulation with acrolein by serotonin receptor antagonists: acrolein 300 μM, pizotifen maleate 10 μM, ramosetron hydrochloride 0.3 μM, vs vehicle
Experimental: Guinea pigs (Hartley strain, male, weighing 300-400 g), under ether anesthesia, were exsanguinated to death by cutting the carotid artery. The ileum was extirpated, about 15-cm portions at both ends were removed, a section 1.5 cm long was cut out from the remaining portion, and incisions were made longitudinally parallelly in the gut to prepare a tabular specimen. This specimen was sandwiched with serrefine at both ends, and suspended with a thread in a Magnus chamber containing 10 ml of a 37° C. Krebs solution (118 mM NaCl, 4.7 mM KCl, 2.5 mM CaCl2, 1.2 mM MgSO4, 1.2 mM KH2PO4, 11 mM D-glucose, 20 mM NaHCO3) aerated with 95% O2-5% CO2 mixed gas. A 1-g load was applied to the specimen, buffers were exchanged at 15-minute intervals, and the specimen was allowed to stand for about 60 minutes to stabilize its tension. Changes in the tension in response to agonist stimulation were measured isometrically, and recorded on a recorder. Acetylcholine, 10^−5 M, was administered to induce contraction of the ileum specimen; after the contraction maximized, the bath was washed three times to purge out the acetylcholine. This operation was repeated at 10-minute intervals, and after the induced contraction stabilized two consecutive times, each test substance was administered. By comparing the contractile forces produced by acetylcholine and the test substance, the effect of the test substance was evaluated. One specimen was investigated only at one concentration of the test substance. […] From the results above, it was shown that the TRPA1 activator induced gut contraction.
The serotonin receptor antagonists used were pizotifen maleate (10 μM), a 5-HT1,2 receptor antagonist, ketanserin tartrate (0.1 μM), a 5-HT2 receptor antagonist, ramosetron hydrochloride (0.3 μM), a 5-HT3 receptor antagonist, and GR113808 (0.3 μM), a 5-HT4 receptor antagonist.
The inhibitory actions of various serotonin receptor antagonists on contraction upon stimulation with acrolein (300 μM) were investigated in the same manner. […] From the results above, it was shown that serotonin was released upon stimulation with acrolein to induce contraction via serotonin receptors such as 5-HT1 receptor and 5-HT3 receptor.

[5] = target: T1, human TRPA1 (polypeptide of SEQ ID NO:2) (Homo sapiens, UniProt O75762, K186N/R3C/R58T); assay: Intracellular calcium by FLIPR in CHO-K1 cells expressing human TRPA1 (activator screening); type: cell-based
T1 construct: expressed in transfected cells; host or cells: CHO-K1 cells, transient transfection of the pcDNA3.1(+) human TRPA1 vector
T1 sequence (O75762 whole entry R3C/R58T/K186N): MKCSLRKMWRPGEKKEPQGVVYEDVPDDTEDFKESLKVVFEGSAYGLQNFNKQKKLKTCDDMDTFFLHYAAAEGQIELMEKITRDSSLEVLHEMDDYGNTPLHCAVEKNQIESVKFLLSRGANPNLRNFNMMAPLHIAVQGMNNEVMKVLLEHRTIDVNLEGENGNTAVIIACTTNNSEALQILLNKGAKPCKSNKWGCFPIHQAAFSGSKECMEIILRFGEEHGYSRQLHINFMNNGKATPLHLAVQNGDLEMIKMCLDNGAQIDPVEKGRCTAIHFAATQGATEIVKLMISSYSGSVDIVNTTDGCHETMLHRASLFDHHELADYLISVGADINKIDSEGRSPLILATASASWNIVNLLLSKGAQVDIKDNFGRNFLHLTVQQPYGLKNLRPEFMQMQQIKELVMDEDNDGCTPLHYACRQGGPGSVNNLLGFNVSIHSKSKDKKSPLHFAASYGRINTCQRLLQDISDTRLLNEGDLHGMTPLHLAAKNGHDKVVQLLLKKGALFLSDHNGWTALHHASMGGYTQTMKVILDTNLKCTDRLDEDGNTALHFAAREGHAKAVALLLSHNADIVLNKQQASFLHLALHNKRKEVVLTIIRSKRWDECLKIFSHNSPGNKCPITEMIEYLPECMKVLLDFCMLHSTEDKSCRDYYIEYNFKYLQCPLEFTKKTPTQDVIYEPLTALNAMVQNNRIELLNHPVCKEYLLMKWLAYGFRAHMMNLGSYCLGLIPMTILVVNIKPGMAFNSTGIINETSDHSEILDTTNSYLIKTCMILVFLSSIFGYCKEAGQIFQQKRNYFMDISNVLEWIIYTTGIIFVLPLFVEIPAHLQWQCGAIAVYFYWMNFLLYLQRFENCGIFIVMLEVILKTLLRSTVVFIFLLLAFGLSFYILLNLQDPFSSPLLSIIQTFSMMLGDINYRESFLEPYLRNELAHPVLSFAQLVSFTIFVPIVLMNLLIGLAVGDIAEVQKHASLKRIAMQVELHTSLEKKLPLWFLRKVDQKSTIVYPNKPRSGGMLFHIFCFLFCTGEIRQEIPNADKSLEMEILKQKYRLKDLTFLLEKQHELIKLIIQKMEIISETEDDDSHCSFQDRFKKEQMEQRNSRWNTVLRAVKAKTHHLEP
Experimental: To detect the TRPA1 channel activity of a polypeptide consisting of the amino acid sequence shown by SEQ ID NO:2, the expression vector obtained in Example 1 above was transfected to animal cells, whereby the aforementioned protein was expressed.
Various test samples were added to CHO-K1 cells forced to is transiently express TRPA1 by the transfection operation of Example 2 above, and the resulting changes in intracellular calcium concentration were measured using FLIPR (Molecular Device).
To measure the changes in intracellular calcium concentration by FLIPR, the following pre-treatment was performed. First, an assay buffer for adding the fluorescent dye Fluo3-AM (DOJIN) to the cells, or for washing the cells just before performing the FLIPR assay, was prepared. To a solution prepared by adding 20 ml of 1M HEPES (pH 7.4) (Invitrogen) to 1000 ml of HBSS (Invitrogen) (hereinafter, HBSS/HEPES solution), 10 ml of a solution prepared by dissolving 710 mg of probenecid (Sigma) in 5 ml of 1N NaOH and then adding 5 ml of the HBSS/HEPES solution, was added and mixed, and this solution was used as the assay buffer. Next, 50 μg of Fluo3-AM was dissolved in 22 μl of DMSO (DOJIN), and an equal volume of 20% pluronic acid (Molecular Probes) was added and mixed, after which this mixture was added to 10.6 ml of the assay buffer supplemented with 105 μl of fetal bovine serum, whereby a fluorescent dye solution was prepared. […] After this pretreatment was performed, changes in intracellular calcium concentration after addition of the various test samples were measured with the FLIPR.
Compounds that activate a polypeptide consisting of the amino acid sequence shown by SEQ ID NO:2 (activators) were screened for. As an index of activation, calcium inflow in the cells was detected using a calcium-sensitive fluorescent reagent; specifically, the method described in Example 3 was used.

guinea pig ileum [6] = assay: Isolated guinea pig gut constriction (Magnus, ileum); details: allyl isothiocyanate 300 μM; pizotifen maleate 10 μM, ramosetron hydrochloride 0.3 μM; vs vehicle
[7] = target: T1, human TRPA1 (polypeptide of SEQ ID NO:2); assay: TRPA1 inhibitor screening by FLIPR, calcium inflow after addition of cinnamic aldehyde; type: cell-based; details: read-out: inhibitory activity on the polypeptide of SEQ ID NO:2 in terms of IC50
Experimental: To measure the changes in intracellular calcium concentration by FLIPR, the following pre-treatment was performed. First, an assay buffer for adding the fluorescent dye Fluo3-AM (DOJIN) to the cells, or for washing the cells just before performing the FLIPR assay, was prepared. To a solution prepared by adding 20 ml of 1M HEPES (pH 7.4) (Invitrogen) to 1000 ml of HBSS (Invitrogen) (hereinafter, HBSS/HEPES solution), 10 ml of a solution prepared by dissolving 710 mg of probenecid (Sigma) in 5 ml of 1N NaOH and then adding 5 ml of the HBSS/HEPES solution, was added and mixed, and this solution was used as the assay buffer. […] After this pretreatment was performed, changes in intracellular calcium concentration after addition of the various test samples were measured with the FLIPR.
Compounds that inhibit a polypeptide consisting of the amino acid sequence shown by SEQ ID NO:2 (inhibitor) were screened for. Inhibitory activity was measured by performing detection of calcium inflow in the cells using a calcium-sensitive fluorescent reagent; specifically, the method described in Example 3 was used with a modification. […]

rat EC cells = assay: Serotonin secretion from rat small intestine EC cells; type: cell-based; details: 45 minutes culture
Experimental: A Wistar rat (male, 8-week-old) was decapitated and exsanguinated, after which it was dissected and laparotomized with scissors, and the small intestine was extirpated. The inside of the lumen of the extirpated small intestine was washed with physiological saline, and about 20 mL of Buffer A (70 mM NaCl, 5 mM KCl, 20 mM NaHCO3, 0.5 mM NaH2PO4, 50 mM HEPES (pH 7.2), 11 mM glucose, 3 mM EDTA, 0.5% BSA, 0.05 mM dithiothreitol, 1 mg/mL N-acetyl-L-cysteine) was injected, after which both ends were closed, and the small intestine was allowed to stand in 37° C. incubated HBSS for 10 minutes. Thereafter, the Buffer A in the lumen of the small intestine was discarded, about 20 mL of Buffer A was injected again, and the small intestine was allowed to stand in 37° C. incubated HBSS for 10 minutes. Again, the Buffer A in the lumen of the small intestine was discarded, fresh Buffer A was injected, and the small intestine was allowed to stand in 37° C. incubated HBSS for 20 minutes, after which the lumen content was recovered. […]
Serotonin secretion activity in EC cells prepared by the method described in Example 9-(3) was measured by a method modified from the method of Example 14 above. […]
The serotonin content in the supernatant was measured using a commercially available serotonin immunoassay kit (Beckman). […]

Compound	elevation of fluorescence intensity in negative control cells [1]	serotonin secretion from RIN14B cells (RIN14B cells [2])	elevation of fluorescence intensity (calcium inflow) in RIN14B cells (RIN14B cells [3]; RIN14B cells)	EC50 (guinea pig ileum [4]) [µM]	Action (guinea pig ileum [4])	suppression of contraction upon stimulation with allyl isothiocyanate by serotonin receptor antagonists (guinea pig ileum [6])	suppression of contraction upon stimulation with acrolein by serotonin receptor antagonists (guinea pig ileum [4])	also measured
C=CC=O [acrolein]	none of these compounds produced an elevation of fluorescence intensity	serotonin secretion was promoted; also recorded: concentration-dependently promoted the release of serotonin	an elevation of fluorescence intensity was detected	70.3	Contraction	–	–	concentration at which constrictive action was observed (guinea pig ileum [4]; tested at 10, 30, 100, 300 μM): ≥ 10 µM; EC50 [5]: 7 µM; change in intracellular calcium concentration ([5]; CHO-K1 cells expressing human TRPA1, FLIPR, Fluo3-AM): responded specifically (elevation of intracellular calcium concentration)
Cn1cc(C(=O)[C@@H]2CCc3nc[nH]c3C2)c2ccccc21 [ramosetron hydrochloride]	–	–	–	–	–	about 74%	about 84%	–
N.N.N.N.N.N.N.N.N.N.N.N.N.N.[Cl-].[Cl-].[Cl-].[Cl-].[Cl-].[Cl-].[O-2].[O-2].[Ru+3].[Ru+3].[Ru+4] [Ruthenium Red]	–	–	–	–	–	–	–	inhibition of acrolein-induced serotonin secretion (RIN14B cells [2]; 30 μM Ruthenium Red, acrolein 30 μM): 73.0%; suppression of cinnamic aldehyde-induced serotonin secretion (RIN14B cells [2]; Ruthenium Red 30 μM, cinnamic aldehyde 30 μM): completely suppressed; IC50 [7]: 2.2 µM; inhibition of activation by allyl isothiocyanate (RIN14B cells [3]; 30 μM Ruthenium Red, RIN14B cells): 90.9%; inhibition of activator-induced elevation of fluorescence intensity (RIN14B cells [3]; added concurrently with allyl isothiocyanate, cinnamic aldehyde or acrolein): the elevation of fluorescence intensity was inhibited; suppression of contraction upon stimulation with allyl isothiocyanate by TRPA1 inhibitor (guinea pig ileum [4]; Ruthenium Red 30 μM for 15 minutes, allyl isothiocyanate 300 μM, vs vehicle-applied specimen): about 84%
O=C/C=C/c1ccccc1 [cinnamic aldehyde]	none of these compounds produced an elevation of fluorescence intensity	serotonin secretion was promoted; also recorded: concentration-dependently promoted the release of serotonin	an elevation of fluorescence intensity was detected	88.3	Contraction	–	–	serotonin secretion from rat EC cells (rat EC cells): significant serotonin secretion promoting activity was observed; also recorded: promoted the release of serotonin from the EC cells
pizotifen maleate	–	–	–	–	–	about 44%	about 74%	–
